As usually defined, the IC50 is the concentration that inhibits the measured activity by half. Low values mean greater potency in that assay, high ones weaker potency in that assay.

The subject of one experiment is DLD-1 BRCA2 (−/−) cells. Kind of experiment: CellTiter-Glo DLD-1 BRCA2 (−/−) cell assay for PARP1/2 inhibition. The format is cell-based. Particulars: 6 days, read-out: DLD-1 BRCA2 (−/−) CTG EC50. A digest of the protocol: (§1)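 DLD-1 parent (500 cells/well) and DLD-1 BRCA2 (−/−) (1200 cells/well) cells in RPMI 1640 with 10% FBS exposed to compounds at 30 μM to 0.5 nM (3-fold dilutions) for 6 days at 37° C. Viability read by CellTiter-Glo luminescence on day 7.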
(In general: ATP-based viability assays read luminescence as a measure of living cells.)

The next experiment has as its system DLD-1 parent cells. Kind of experiment: CellTiter-Glo DLD-1 parent cell assay. Format: cell-based. Particulars: 6 days, read-out: DLD-1 CTG EC50. Summed up:
as §1

The target of the next experiment is TIPARP GST-(TEV) (Homo sapiens (Human), UniProt Q7Z3E1). Briefly: TR-FRET binding assay, TIPARP. Particulars: for IC50: TR-FRET, Probe 1, 2 hours incubation; for PARP1/TIPARP IC50 Ratio: ratio of PARP1 GST IC50 to TIPARP GST-(TEV) IC50. A digest of the protocol: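 N-terminal GST-TEV-tagged human TIPARP with protein/probe mix in 50 mM Tris-HCl pH 8.0, 5 mM MgCl2, 5 µM ZnCl2, 1 mM DTT, 0.15% BSA, 0.01% Triton X-100, plus 1 nM Tb-anti-GST antibody. Compounds at 30 µM to 0.5 nM final, 3-fold steps. TR-FRET ratio read after 2 h at ambient temperature.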
(In general: Time-resolved FRET reads energy transfer from a long-lived donor to a nearby acceptor.)

The subject of another experiment is NCI-H1373 cells. Kind of experiment: NCI-H1373 CellTiter-Glo cell assay for TIPARP inhibition. Format: cell-based, human. Particulars: 6 days, 100 nM 10-Cl-BBQ in medium; read-out: NCI-H1373 CTG EC50. A digest of the protocol: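 NCI-H1373 cells (1000/well) grown in RPMI 1640 with 10% FBS and 100 nM 10-Cl-BBQ, exposed to compounds from 30 μM to 0.5 nM final in 3-fold steps for 6 days at 37° C. Cell number read on day 7 by CellTiter-Glo luminescence.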

Another experiment concerns the target PARP1 GST (Homo sapiens (Human), UniProt P09874). Briefly: TR-FRET binding assay, PARP1. To be noted: Probe 2, 2 hours incubation. A digest of the protocol:
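Serially diluted compounds, final 30 μM down to 0.5 nM, incubated 2 h at ambient temperature with GST-tagged protein/probe mix plus 1 nM Tb-anti-GST antibody. Buffer: 50 mM Tris-HCl pH 8.0, 5 mM MgCl2, 5 μM ZnCl2, 1 mM DTT, 0.15% BSA, 0.01% Triton X-100. Binding read as TR-FRET ratio.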

Sequence of PARP1 GST (P09874 whole entry): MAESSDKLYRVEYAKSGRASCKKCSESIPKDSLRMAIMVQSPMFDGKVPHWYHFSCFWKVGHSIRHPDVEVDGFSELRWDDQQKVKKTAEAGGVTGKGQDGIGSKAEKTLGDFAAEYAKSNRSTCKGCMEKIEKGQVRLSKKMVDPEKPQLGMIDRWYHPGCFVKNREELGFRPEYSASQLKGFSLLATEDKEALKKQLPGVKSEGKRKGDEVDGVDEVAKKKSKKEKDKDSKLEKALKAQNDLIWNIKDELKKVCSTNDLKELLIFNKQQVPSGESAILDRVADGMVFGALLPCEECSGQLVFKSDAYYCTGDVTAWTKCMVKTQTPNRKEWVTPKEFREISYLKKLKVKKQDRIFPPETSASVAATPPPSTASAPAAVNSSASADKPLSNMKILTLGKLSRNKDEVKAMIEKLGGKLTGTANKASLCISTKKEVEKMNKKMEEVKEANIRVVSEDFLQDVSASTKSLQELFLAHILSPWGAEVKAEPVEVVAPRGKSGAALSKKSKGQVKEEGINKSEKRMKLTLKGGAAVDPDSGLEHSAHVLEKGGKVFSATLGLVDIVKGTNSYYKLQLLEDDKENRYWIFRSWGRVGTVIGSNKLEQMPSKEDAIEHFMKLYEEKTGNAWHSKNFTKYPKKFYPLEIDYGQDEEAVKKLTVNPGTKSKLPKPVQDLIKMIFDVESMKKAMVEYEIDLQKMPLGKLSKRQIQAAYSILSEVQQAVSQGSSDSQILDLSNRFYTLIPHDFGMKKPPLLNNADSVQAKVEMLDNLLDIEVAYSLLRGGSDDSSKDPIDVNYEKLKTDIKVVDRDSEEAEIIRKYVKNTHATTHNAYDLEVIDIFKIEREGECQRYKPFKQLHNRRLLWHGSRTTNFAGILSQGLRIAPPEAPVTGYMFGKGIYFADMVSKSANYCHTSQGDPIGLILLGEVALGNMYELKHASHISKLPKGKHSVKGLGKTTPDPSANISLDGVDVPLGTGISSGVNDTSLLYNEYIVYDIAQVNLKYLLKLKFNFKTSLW
Sequence of TIPARP GST-(TEV) (Q7Z3E1 441-657): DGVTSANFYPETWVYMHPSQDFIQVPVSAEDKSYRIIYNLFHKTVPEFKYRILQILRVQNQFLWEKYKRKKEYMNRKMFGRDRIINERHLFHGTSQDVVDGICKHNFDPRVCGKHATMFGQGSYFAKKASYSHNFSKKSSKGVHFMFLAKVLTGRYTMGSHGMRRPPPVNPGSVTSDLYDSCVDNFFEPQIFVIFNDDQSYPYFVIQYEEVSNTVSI

On to `O=c1[nH]cc([C@H]2C[C@@H](C(=O)N3CCN(c4ncc(C(F)(F)F)cn4)CC3)C2)cc1C(F)(F)F` [Example 23, 3-(trifluoromethyl)-5-[(1s,3s)-3-{4-[5-(trifluoromethyl)pyrimidin-2-yl]piperazine-1-carbonyl}cyclobutyl]pyridin-2(1H)-one], for which the values for the EC50 in the experiment on DLD-1 BRCA2 (−/−) cells, in the experiment on DLD-1 parent cells and in the experiment with NCI-H1373 cells were 785 nM, 13300 nM and 44.2 nM, respectively. Further, the IC50 was determined as 2.74 nM at TIPARP GST-(TEV) and 136 nM at PARP1 GST. Further, the “PARP1/TIPARP IC50 Ratio” value at TIPARP GST-(TEV) is listed as 49.6.

`C[C@@H]1CN(C(=O)[C@H]2C[C@H](c3c[nH]c(=O)c(C(F)(F)F)c3)C2)C[C@H](C)N1c1ncc(C(F)(F)F)cn1` [Example 24, 5-[(1r,3r)-3-{(3R,5S)-3,5-dimethyl-4-[5-(trifluoromethyl)pyrimidin-2-yl]piperazine-1-carbonyl}cyclobutyl]-3-(trifluoromethyl)pyridin-2(1H)-one]: the EC50 in the experiment on DLD-1 BRCA2 (−/−) cells was 23400 nM; in the experiment with DLD-1 parent cells, above 30000 nM; in the experiment on NCI-H1373 cells, 6490 nM. Besides, the concentration for half-maximal inhibition (IC50) at TIPARP GST-(TEV) stood at 1870 nM; at PARP1 GST it was 3080 nM. Moreover, at TIPARP GST-(TEV), the “PARP1/TIPARP IC50 Ratio” value came out at 1.65.

With `C[C@@H]1CN(c2ncc(C(F)(F)F)cn2)CCN1C(=O)[C@H]1C[C@H](c2c[nH]c(=O)c(C(F)(F)F)c2)C1` [Example 25, 5-[(1R,3r)-3-{(2R)-2-methyl-4-[5-(trifluoromethyl)pyrimidin-2-yl]piperazine-1-carbonyl}cyclobutyl]-3-(trifluoromethyl)pyridin-2(1H)-one], the EC50 in the experiment on DLD-1 BRCA2 (−/−) cells is above 30000 nM; in the experiment with DLD-1 parent cells, above 30000 nM; in the experiment with NCI-H1373 cells, 10200 nM. The IC50 came out at 2000 nM on TIPARP GST-(TEV) and 2030 nM at PARP1 GST. Further, at TIPARP GST-(TEV), the “PARP1/TIPARP IC50 Ratio” value is given as 1.02.

For `O=c1[nH]cc([C@H]2C[C@H](C(=O)N3CCN(c4ncc(C(F)(F)F)cn4)CC3)C2)cc1C(F)(F)F` [Example 26, 3-(trifluoromethyl)-5-[(1r,3r)-3-{4-[5-(trifluoromethyl)pyrimidin-2-yl]piperazine-1-carbonyl}cyclobutyl]pyridin-2(1H)-one], the EC50 with DLD-1 BRCA2 (−/−) cells was above 30000 nM; with DLD-1 parent cells, above 30000 nM; with NCI-H1373 cells, 9100 nM. The IC50 came to 1620 nM on TIPARP GST-(TEV) and 1280 nM on PARP1 GST. Besides, the “PARP1/TIPARP IC50 Ratio” value at TIPARP GST-(TEV) is on record as 0.790.

Turning to `CC(C)(O)c1cnc(N2CCN(C(=O)[C@H]3C[C@@H](Cc4c[nH]c(=O)c(C(F)(F)F)c4)C3)CC2)nc1` [Example 27, 5-{[(1s,3s)-3-{4-[5-(2-hydroxypropan-2-yl)pyrimidin-2-yl]piperazine-1-carbonyl}cyclobutyl]methyl}-3-(trifluoromethyl)pyridin-2(1H)-one], the results for the EC50 in the experiment on DLD-1 BRCA2 (−/−) cells, in the experiment with DLD-1 parent cells and in the experiment with NCI-H1373 cells were 894 nM, above 30000 nM and 38.7 nM, respectively. Also, the IC50 at TIPARP GST-(TEV) was found to be 2.34 nM; on PARP1 GST, 231 nM. Moreover, the “PARP1/TIPARP IC50 Ratio” value on TIPARP GST-(TEV) is given as 98.7.

For the compound `CC(C)(O)c1cnc(N2CCN(C(=O)[C@H]3C[C@@H](c4c[nH]c(=O)c(C(F)(F)F)c4)C3)CC2)nc1` [Example 28, 5-[(1s,3s)-3-{4-[5-(2-hydroxypropan-2-yl)pyrimidin-2-yl]piperazine-1-carbonyl}cyclobutyl]-3-(trifluoromethyl)pyridin-2(1H)-one], the EC50 with DLD-1 BRCA2 (−/−) cells was 5450 nM; in the experiment with DLD-1 parent cells, above 30000 nM; with NCI-H1373 cells it was 174 nM. The IC50 came out at 5.69 nM at TIPARP GST-(TEV) and 507 nM on PARP1 GST. Besides, the “PARP1/TIPARP IC50 Ratio” value at TIPARP GST-(TEV) is reported as 89.1.

As for `O=c1[nH]cc(C[C@H]2C[C@@H](C(=O)N3CCN(c4ncc(C(F)(F)F)cn4)CC3)C2)cc1C(F)(F)F` [Example 29, 3-(trifluoromethyl)-5-{[(1s,3s)-3-{4-[5-(trifluoromethyl)pyrimidin-2-yl]piperazine-1-carbonyl}cyclobutyl]methyl}pyridin-2(1H)-one], the EC50 was found to be 230 nM in the experiment with DLD-1 BRCA2 (−/−) cells, 5960 nM in the experiment with DLD-1 parent cells and 18.2 nM in the experiment with NCI-H1373 cells. Moreover, the values for the IC50 at TIPARP GST-(TEV) and at PARP1 GST were 1.75 nM and 263 nM, respectively. Further, the “PARP1/TIPARP IC50 Ratio” value on TIPARP GST-(TEV) was found to be 150.

Values taken from patent US20250333394A1, “Tiparp Inhibitor Compounds” (AbbVie Inc., priority 2024, published 2025).
